Laboratory results reported in patent US10654797B2, “Solid forms of an adamantyl compound, compositions and uses thereof” (NORTH & SOUTH BROTHER PHARMACY INVESTMENT COMPANY LIMITED, priority 2016, dated 2020).

Assays:
[1] = In vivo pharmacokinetics: memantine in plasma after intramuscular administration to rats; settings: memantine measured in rat plasma, memantine solution 17.5 mg/kg
Method: Compound (I) was tested in an experiment to determine its in vivo conversion to the active compound memantine.
Analytical LC/MS/MS systems: Agilent 1200 Series vacuum degasser, dual-injection pump, orifice autosampler, column incubator, charged spray ionization (ESI) source, and Agilent G6430 three-stage quadrupole mass spectrometer. The quantitative analysis is performed in the MRM mode, with the following MRM conversion parameters:
Waters XBridge TMC18, 2.1×30 mm, 3.5 μM column; 20 μL of sample was injected in each run. Conditions: The mobile phase included […]+2 mM ammonium formate+0.1% formic acid (A) and methanol+2 mM ammonium formate+0.1% formic acid (B). The flow rate was 0.35 mL/min. The mobile phase gradient is as follows: […]
Additional instruments and reagents included Agilent 6330 Series LC/MS/MS spectrometer equipped with a G1312A Binary Injection Pump, G1367A autosampler and MS/MS Detector for analysis; LC/MS/MS spectrometer with ESI source. Suitable cationic model treatments and MRM conversion were used for each analyte using standard solution for optimal analysis. Waters XBridge TMC18 was used with specifications of 2.1×30 mm, 3.5 μM. The reaction was carried out with […] ammonium formate+0.1% formic acid (A) and methanol+2 mM ammonium formate+0.1% formic acid (B). […]

[2] = Stability of thin layers under high temperature, high humidity, light and ambient conditions, impurity by HPLC; assay type: physicochemical
Method: Thin layers (≤5 mm) of crystalline Form I were placed under high temperature (60±2° C.), high humidity (92.5%±2% humidity), light (visible light 4500 lx±500 lx) and ambient temperature (25±2° C., 65%±5% humidity) for 15 days, and samples were analyzed by HPLC on day 5, 9 and 15.

[3] = as above; assay type: physicochemical; settings: day 10, HPLC
[4] = Hygroscopicity: weight gain at controlled relative humidity; assay type: physicochemical; settings: 25° C.±1° C., 24 hours
[5] = Crystal form stability: suspension in water stirred 24 hours or storage, solids analyzed by X-ray diffraction; assay type: physicochemical; settings: for Crystalline form after stirring in water: suspension in water, 24 hours, X-ray diffraction
Method: Samples of a mixture of crystalline Form I and Form II of Compound (I) were added to water at room temperature or 60° C. to form suspensions, which were stirred for 24 hours, and solids were analyzed by X-ray diffraction.

SMILES: CC12CC3CC(C)(C1)CC(N)(C3)C2 [memantine]
- T1/2 [1]: 4 h

SMILES: CC12CC3CC(C)(C1)CC(NC(=O)OCOC(=O)c1ccccc1)(C3)C2 [crystalline Form I, ((((1r,3R,5S,7r)-3,5-dimethyladamantan-1-yl)carbamoyl)oxy)methyl benzoate]
- percentage of impurity ([2]; 60 ± 2° C., day 0, HPLC): 0.04%
- percentage of impurity ([2]; 60 ± 2° C., day 5, HPLC): 0.04%
- percentage of impurity ([2]; 60 ± 2° C., day 15, HPLC): 0.02%
- percentage of impurity ([2]; 92.5% ± 2% humidity, day 0, HPLC): 0.04%
- percentage of impurity ([2]; 92.5% ± 2% humidity, day 5, HPLC): 0.06%
- percentage of impurity ([2]; 92.5% ± 2% humidity, day 15, HPLC): 0.02%
- percentage of impurity ([2]; ambient temperature (25±2° C., 65%±5% humidity), day 0, HPLC): 0.04%
- percentage of impurity ([2]; ambient temperature (25±2° C., 65%±5% humidity), day 5, HPLC): 0.04%
- percentage of impurity ([2]; ambient temperature (25±2° C., 65%±5% humidity), day 10, HPLC): 0.04%
- percentage of impurity ([2]; ambient temperature (25±2° C., 65%±5% humidity), day 15, HPLC): 0.01%
- chemical change under stress conditions ([2]; high temperature, high humidity, light and ambient temperature for 15 days): did not exhibit significant chemical change
- percentage of impurity ([2]; visible light 4500 lx±500 lx, day 0, HPLC): 0.04%
- percentage of impurity ([2]; visible light 4500 lx±500 lx, day 5, HPLC): 0.03%
- percentage of impurity ([2]; visible light 4500 lx±500 lx, day 15, HPLC): 0.02%
- percentage of impurity ([3]; 60 ± 2° C.): 0.02%
- percentage of impurity ([3]; 92.5% ± 2% humidity): 0.06%
- percentage of impurity ([3]; visible light 4500 lx±500 lx): 0.03%
- hygroscopicity ([4]; 80% and 92.5% RH): lack of hygroscopicity
- weight gain ([4]; saturated KNO3 aqueous solution (92.5%±2% RH)): 0.06%
- weight gain ([4]; saturated NH4Cl aqueous solution (80%±2% RH)): 0.03%

SMILES: CC12CC3CC(C)(C1)CC(NC(=O)OCOC(=O)c1ccccc1)(C3)C2 [Crystalline Form II, ((((1r,3R,5S,7r)-3,5-dimethyladamantan-1-yl)carbamoyl)oxy)methyl benzoate]
- Crystalline form upon long term storage ([5]; long term storage at room temperature): converted to Form I

SMILES: CC12CC3CC(C)(C1)CC(NC(=O)OCOC(=O)c1ccccc1)(C3)C2 (mixture of isomers) [((((1r,3R,5S,7r)-3,5-dimethyladamantan-1-yl)carbamoyl)oxy)methyl benzoate]
- Crystalline form after stirring in water ([5]; 60° C.): completely converted to crystalline Form I
- Crystalline form after stirring in water ([5]; room temperature): remained as a mixture of crystalline Form I and Form II
